Results from patent US20260216255A1, “STRAIN OF COLLINSELLA, AND PHARMACEUTICAL COMPOSITION THEREOF” (MOON (GUANGZHOU) BIOTECH CO., LTD., priority 2022, published 2026).

System: strain MNH 18574
Test: Antibiotic sensitivity test by disk diffusion method
Format: cell-based, Collinsella sp.
Conditions: for Diameter of inhibition zone: strain MNH 18574
Experimental: An antibiotic sensitivity test was carried out on the strain MNH 18574 by a disk diffusion method.

| Compound | sensitivity or resistance of strain MNH 18574 to the antibiotic | Diameter of inhibition zone [mm] |
| --- | --- | --- |
| CC1(C)S[C@@H]2[C@H](NC(=O)[C@H](N)c3ccccc3)C(=O)N2[C@H]1C(=O)O [Ampicillin (AMP), Ampicillin] | resistant | 0 |
| CO/N=C(\C(=O)N[C@@H]1C(=O)N2C(C(=O)O)=C(CSc3nc(=O)c(=O)[nH]n3C)CS[C@H]12)c1csc(N)n1 [Ceftriaxone (CTR), Ceftriaxone] | resistant | 0 |
| O=C(N[C@H](CO)[C@H](O)c1ccc([N+](=O)[O-])cc1)C(Cl)Cl [Chloramphenicol (CLM), Chloramphenicol] | sensitive | 27.64 |
| O=C(O)c1cn(C2CC2)c2cc(N3CCNCC3)c(F)cc2c1=O [Ciprofloxacin (CFX), Ciprofloxacin] | resistant | 0 |
| CC[C@H]1OC(=O)[C@H](C)[C@@H](O[C@H]2C[C@@](C)(OC)[C@@H](O)[C@H](C)O2)[C@H](C)[C@@H](O[C@@H]2O[C@H](C)C[C@H](N(C)C)[C@H]2O)[C@](C)(O)C[C@@H](C)C(=O)[C@H](C)[C@@H](O)[C@]1(C)O [Erythromycin (ERM), Erythromycin] | resistant | 0 |
| CCC[C@@H]1C[C@@H](C(=O)N[C@@H]([C@H]2O[C@H](SC)[C@H](O)[C@@H](O)[C@H]2O)[C@@H](C)O)N(C)C1 [Lincomycin (LIN), Lincomycin] | resistant | 0 |
| CN(C)[C@@H]1C(O)=C(C(N)=O)C(=O)[C@@]2(O)C(O)=C3C(=O)c4c(O)cccc4[C@@](C)(O)[C@H]3C[C@@H]12 [Tetracycline (TET), Tetracycline] |  | 0 |
| Gentamicin [Gentamicin (GEN)] | resistant | 0 |
| Penicillin [Penicillin (PEN)] | sensitive | 24.51 |
| Trimethoprim-sulfamethoxazole [Trimethoprim-sulfamethoxazole (T/S)] | resistant | 0 |
